Experimental data from patent US11203591B2, “Substituted 6-azabenzimidazole compounds” (Gilead Sciences, Inc., priority 2018, dated 2021).
pIC50: −log10 of the molar value.

The compounds below were run against human HPK1 (MAP4K1) (Homo sapiens (Human), UniProt Q92918) (assay: HPK1 IC50 Assay (TR-FRET peptide phosphorylation)). Details: recombinant HPK1 kinase domain 0.15 nM, 10 μM ATP, 1 μM STK S1 peptide; geometric mean of multiple experiments.
Type: biochemical
Method in brief: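 Readout: TR-FRET (665 nm/620 nm) after EDTA stop, detecting STK S1 peptide (1 μM) phosphorylation by 0.15 nM HPK1 kinase domain, ATP-pre-activated, at 10 μM ATP over 3 h, 25° C, pH 7.0. IC50s from four-parameter variable-slope fits, normalized to staurosporine and DMSO, averaged geometrically.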

Chain of human HPK1 (MAP4K1) (Q92918 17-274): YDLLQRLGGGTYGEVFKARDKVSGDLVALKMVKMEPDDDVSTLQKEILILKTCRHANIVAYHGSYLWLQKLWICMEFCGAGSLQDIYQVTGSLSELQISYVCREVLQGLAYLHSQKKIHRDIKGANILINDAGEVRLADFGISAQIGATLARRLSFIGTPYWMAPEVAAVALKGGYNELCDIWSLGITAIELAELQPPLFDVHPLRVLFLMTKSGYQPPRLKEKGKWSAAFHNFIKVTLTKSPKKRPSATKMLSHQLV

SMILES | pIC50
CNC(=O)c1cc(Nc2nc(-c3ccc4c(c3)N([C@H]3C[C@@H](N5CCCC5)C3)C(=O)C4(C)C)cc3ncn(C(C)C)c23)ccc1C [Example 103] | 10.00
CNC(=O)c1cc(Nc2nc(-c3ccc4c(c3)N([C@H]3C[C@@H](N5CCC(C(F)F)C5)C3)C(=O)C4(C)C)cc3ncn(C(C)C)c23)ccc1C (stereo partly shown) [Example 104, 5-((6-(1-((1s,3s)-3-(3-(difluoromethyl)pyrrolidin-1-yl)cyclobutyl)-3,3-dimethyl-2-oxoindolin-6-yl)-3-isopropyl-3H-imidazo[4,5-c]pyridin-4-yl)amino)-N,2-dimethylbenzamide] | 9.70
CNC(=O)c1cc(Nc2nc(-c3ccc4c(c3)N(C3CC(N5CC[C@H](C(F)F)C5)C3)C(=O)C4(C)C)cc3ncn(C(C)C)c23)ccc1C (stereo partly shown) [Example 104A, 5-((6-(1-((1s,3s)-3-(3-(difluoromethyl)pyrrolidin-1-yl)cyclobutyl)-3,3-dimethyl-2-oxoindolin-6-yl)-3-isopropyl-3H-imidazo[4,5-c]pyridin-4-yl)amino)-N,2-dimethylbenzamide] | 9.70
CNC(=O)c1cc(Nc2nc(-c3ccc4c(c3)N([C@H]3C[C@@H](N5CCCC(C(F)F)C5)C3)C(=O)C4(C)C)cc3ncn(C(C)C)c23)ccc1C (stereo partly shown) [Example 105, 5-((6-(1-((1s,3s)-3-(3-(difluoromethyl)piperidin-1-yl)cyclobutyl)-3,3-dimethyl-2-oxoindolin-6-yl)-3-isopropyl-3H-imidazo[4,5-c]pyridin-4-yl)amino)-N,2-dimethylbenzamide] | 9.70
CNC(=O)c1cc(Nc2nc(-c3ccc4c(c3)N(C3CC(N5CCC[C@H](C(F)F)C5)C3)C(=O)C4(C)C)cc3ncn(C(C)C)c23)ccc1C (stereo partly shown) [Example 105A, 5-((6-(1-((1s,3s)-3-(3-(difluoromethyl)piperidin-1-yl)cyclobutyl)-3,3-dimethyl-2-oxoindolin-6-yl)-3-isopropyl-3H-imidazo[4,5-c]pyridin-4-yl)amino)-N,2-dimethylbenzamide] | 9.70
CNC(=O)c1cc(Nc2nc(-c3ccc4c(c3)N(C3CC(N5CCC[C@H](C(F)F)C5)C3)C(=O)C4(C)C)cc3ncn(C(C)C)c23)ccc1C (stereo partly shown) [Example 105B, 5-((6-(1-((1s,3s)-3-(3-(difluoromethyl)piperidin-1-yl)cyclobutyl)-3,3-dimethyl-2-oxoindolin-6-yl)-3-isopropyl-3H-imidazo[4,5-c]pyridin-4-yl)amino)-N,2-dimethylbenzamide] | 10.05
CNC(=O)c1cc(Nc2nc(-c3ccc4c(c3)N([C@H]3C[C@@H](N5CCC[C@@H](F)C5)C3)C(=O)C4(C)C)cc3ncn(C(C)C)c23)ccc1C [Example 106] | 10.15
CNC(=O)c1cc(Nc2nc(-c3ccc4c(c3)N([C@H]3C[C@@H](N5CCC[C@@H](F)C5)C3)C(=O)C4(C)C)cc3ncn(C(C)C)c23)c(F)cc1C [Example 107] | 10.00
CNC(=O)c1cc(Nc2nc(-c3ccc4c(c3)N([C@H]3C[C@@H](N5CC[C@@H](F)C5)C3)C(=O)C4(C)C)cc3ncn(C(C)C)c23)c(F)cc1C [Example 108] | 10.00
CC[C@H](C)n1cnc2cc(-c3ccc4c(c3)N([C@H]3C[C@@H](N5CC[C@@H](F)C5)C3)C(=O)C4(C)C)nc(Nc3cc(C(=O)NC)c(C)cc3F)c21 [Example 109] | 9.52
Cc1cc(F)c(Nc2nc(-c3ccc4c(c3)N([C@H]3C[C@@H](N5CCC[C@@H](F)C5)C3)C(=O)C4(C)C)cc3ncn(C(C)C)c23)cc1C(=O)NC(C)C [Example 110] | 9.70
CNC(=O)c1cc(Nc2nc(-c3cnc4c(c3)N([C@H]3C[C@@H](N5CCCCC5)C3)C(=O)C4(C)C)cc3ncn(C(C)C)c23)c(F)cc1C [Example 111] | 9.52
Cc1ccc(Nc2nc(-c3ccc4c(c3)N([C@H]3C[C@@H](N5CCCCC5)C3)C(=O)C4(C)C)cc3ncn(C4CC4)c23)cc1C(N)=O [Example 112] | 10.05
CC[C@H](C)n1cnc2cc(-c3ccc4c(c3)N([C@H]3C[C@@H](N5CCC[C@@H](F)C5)C3)C(=O)C4(C)C)nc(Nc3cc(C(=O)NC)c(C)cc3F)c21 [Example 113] | 10.00
CC[C@H](C)n1cnc2cc(-c3ccc4c(c3)N([C@H]3C[C@@H](N5CCCCC5)C3)C(=O)C4(C)C)nc(Nc3ccc(Cl)c(C(=O)NC)c3)c21 [Example 114] | 10.30
CC(C)NC(=O)c1cc(Nc2nc(-c3ccc4c(c3)N([C@H]3C[C@@H](N5CCCCC5)C3)C(=O)C4(C)C)cc3ncn(C(C)C)c23)ccc1Cl [Example 115] | 10.00

SMILES | pIC50
COCCNC(=O)c1cc(Nc2nc(-c3ccc4c(c3)N([C@H]3C[C@@H](N5CCCCC5)C3)C(=O)C4(C)C)cc3ncn(C(C)C)c23)c(F)cc1C [Example 116] | 9.70
CC(C)NC(=O)c1cc(Nc2nc(-c3ccc4c(c3)N([C@H]3C[C@@H](N5CCCCC5)C3)C(=O)C4(C)C)cc3ncn(C(C)C)c23)c(F)cc1Cl [Example 117] | 9.70
CNC(=O)c1cc(Nc2nc(-c3ccc4c(c3)N([C@H]3C[C@@H](N5CCCCC5)C3)C(=O)C4(C)C)cc3ncn(C(C)C)c23)c(F)cc1Cl [Example 118] | 10.05
CNC(=O)c1cc(Nc2nc(-c3ccc4c(c3)N([C@H]3C[C@@H](N5CCCCC5)C3)C(=O)C4(C)C)cc3ncn(C(C)C)c23)ccc1Cl [Example 119] | 10.15
CNC(=O)c1cc(Nc2nc(-c3ccc4c(c3)N([C@H]3C[C@@H](N5CC(C)(C)C5)C3)C(=O)C4(C)C)cc3ncn(C(C)C)c23)c(F)cc1C [Example 120] | 9.70
Cc1ccc(Nc2nc(-c3ccc4c(c3)N([C@H]3C[C@@H](N5CC(C)(C)C5)C3)C(=O)C4(C)C)cc3ncn(C(C)C)c23)cc1C(=O)NC1CC1 [Example 121] | 10.00
CNC(=O)c1cc(Nc2nc(-c3ccc4c(c3)N([C@H]3C[C@@H](N5CC(C)(C)C5)C3)C(=O)C4(C)C)cc3ncn(C(C)C)c23)ccc1C [Example 122] | 10.00
CNC(=O)c1cc(Nc2nc(-c3ccc4c(c3)N([C@H]3C[C@@H](N5CCCCC5)C3)C(=O)C43CCOCC3)cc3ncn(C(C)C)c23)ccc1C [Example 123] | 10.00
Cc1cc(F)c(Nc2nc(-c3ccc4c(c3)N([C@H]3C[C@@H](N5CCCCC5)C3)C(=O)C43CCOCC3)cc3ncn(C(C)C)c23)cc1C(=O)NC(C)C [Example 125] | 9.70
Cc1ccc(Nc2nc(-c3ccc4c(c3)N([C@H]3C[C@@H](N5CCCCC5)C3)C(=O)C43CCOCC3)cc3ncn(C4CC4)c23)cc1C(N)=O [Example 126] | 10.15
CNC(=O)c1cc(Nc2nc(-c3ccc4c(c3)N([C@H]3C[C@@H](N5CCCCC5)C3)C(=O)C43CCOCC3)cc3ncn(C4CC4)c23)ccc1C [Example 127] | 10.00
CC[C@H](C)n1cnc2cc(-c3ccc4c(c3)N([C@H]3C[C@@H](N5CCCCC5)C3)C(=O)C4(C)C)nc(Nc3ccc(C)c(C(=O)NC)c3)c21 [Example 128] | 10.00
CC(=O)N1CCC2(CC1)C(=O)N([C@H]1C[C@@H](N3CCCCC3)C1)c1cc(-c3cc4ncn(C(C)C)c4c(Nc4cc(C(=O)NC(C)C)c(C)cc4F)n3)ccc12 [Example 129] | 9.70
CCNC(=O)c1cc(Nc2nc(-c3ccc4c(c3)N([C@H]3C[C@@H](N5CCCCC5)C3)C(=O)C43CCN(C(C)=O)CC3)cc3ncn(C(C)C)c23)ccc1C [Example 130] | 10.00
COCCNC(=O)c1cc(Nc2nc(-c3ccc4c(c3)N([C@H]3C[C@@H](N5CCCCC5)C3)C(=O)C43CCN(C(C)=O)CC3)cc3ncn(C(C)C)c23)ccc1C [Example 131] | 9.70
